Reference: a melting point compilation (Tetko et al.; mined from patent text by program, amines drawn as free bases though some values may be those of a salt)

SMILES | melting point [°C]
Cc1cc2c(s1)C(C(=O)Nc1ccccc1)C(=O)N(C)S2(=O)=O (stereo unspecified) | 182 to 184
O=C1Cc2cc(O)cc(O)c2C2CCCCC12 (stereo unspecified) | 220 to 223
CC(=O)Nc1nc(CCc2ccc(CCl)cc2)cs1 | 145 to 146
Cc1ccc(C(=O)NC2CC2)cc1-c1cc2cnc(NC3CCOCC3)nc2n(C)c1=O | 239 to 241
CN1CCN(c2nc3sc4c(NCc5cccnc5)ncnc4c3c3c2CCC(C)(C)C3)CC1 | 210 to 212
OCC1CC2CCC13CN(CC1CC1)CCC31c3cccc(O)c3OC21 (stereo unspecified) | 187 to 190
CC(C)(Sc1ccncc1)C(=O)O | 190 to 192
O=C(Nc1ccccc1Sc1ccccc1)N[C@@H](Cc1ccc(NC(=O)c2c(Cl)cccc2Cl)cc1)C(=O)O | 220
CC(=O)N(c1cc(N)c(F)cc1Cl)S(=O)(=O)CCl | 176 to 180
NC(=O)c1cc(F)c(-n2ncc(Cl)c(Cl)c2=O)cc1F | > 260
Nc1cn(-c2cncc(F)c2)nc1Br | 164 to 165
CCCn1cc(Cc2ccc(C(=O)O)cc2OC)c2cc(CCCC(=O)N(C)C)ccc21 | 117 to 118
O=C(NCCCCCCOC(=O)Oc1ccc([N+](=O)[O-])cc1)Oc1ccc(Oc2ccccc2)cc1 | 102 to 104
ClCc1nnnn1C1CCCCC1 | 101 to 104
CCOCCn1c(C)nc2c(N)ncc(C)c21 | 129 to 130
Cc1nn(-c2ccc(C(F)(F)F)cn2)cc1C=O | 226 to 227
CC(C)(C)CCC(=S)SC(C)(C)C | 98 to 99
CCNc1ccc(S(=O)(=O)Nc2onc(C)c2C)cc1 | 123
COC(=O)c1cc(NC(C)=O)ccc1OC | 132 to 134
COc1ccc(/C(=C\C=C\C(=O)O)C2CC2)cc1 | 154 to 156
CC(C)(C)OC(=O)C=C(c1ccc(C#N)s1)n1ccnc1 | 90 to 91
Clc1nn2nnnc2c2c1CCCC2 | 109 to 110
COC(=O)C1CCCn2c(=O)[nH]c(=O)n21 (stereo unspecified) | 215 to 216
Cc1cc(C)c2cc(N)c(=O)[nH]c2n1 | 238 to 240
CCOC(=O)c1c(OCC)nsc1NC(=O)N(C)C | 164 to 165
C[C@@H]1N=C(c2ccccc2)c2cc(NC(=O)CCCCCCC(=O)O)ccc2N(C)C1=O | 87 to 88
c1ccc(CN2CCC(n3nnc4ccccc43)CC2)cc1 | 110 to 111

SMILES | melting point [°C]
N#Cc1ccccc1OCCCCCCCC(=O)O | 83 to 85
COc1ccc(C2=NN(C3CCN(C(C)=O)CC3)C(=O)C3CC=CCC23)cc1Cl (stereo unspecified) | 206 to 208
OCC1Cc2cccc(F)c2OC1CO (stereo unspecified) | 111
CC(C)(O)CC(=O)N[C@H]1CC[C@H](CCN2CCN(c3nccc4c3OCC4)CC2)CC1 | 139
CCOC(=O)C(=O)c1c(C(=O)OCC)n(C)c2cc(Cl)ccc12 | 94 to 95
O=C1N(c2ccccc2)CCN1C1CCNCC1 | 123 to 124
CCCCNS(=O)(=O)c1ccc(N2CCC(NC[C@H](O)c3ccc(O)c(NS(C)(=O)=O)c3)CC2)cc1 | 71 to 75
COc1ccc2c(=O)[nH]ncc2c1 | 200 to 205
CCN(CC)C(=O)c1nc[nH]n1 | 173 to 174
FC(F)(F)c1cccc(N2CCN(CC[C@H]3CC[C@H](Nc4ncccn4)CC3)CC2)c1 | 167
C=CCN(CC=C)Cc1noc(-c2ncn3c2[C@@H]2CCN2C(=O)c2c(Cl)cccc2-3)n1 | 190 to 192
COC(=O)c1ccc(O)c(OC2CCCC2)c1 | 73 to 75
CCC1(O)CC(=O)OCc2c1ccn(Cc1cc3cc4c(cc3nc1I)OCCO4)c2=O (stereo unspecified) | 165 to 167
O=C1C(Cc2ccccc2C(F)F)c2ccccc2C12COc1cc3c(cc12)OCCO3 (stereo unspecified) | 191 to 193
CNC(=O)c1oc(C(C)(C)C)cc1NC(=O)Nc1ccc(C)cc1 | 190 to 193
COc1cc2c3c4c(c(-c5ccccc5Cl)cc3n(C)c2cc1OCc1ccccc1)C(=O)NC4=O | 282 to 285
O=C1c2cc(O)ccc2OC12CC2 | 180 to 185
O=C(c1ccccc1)C(Br)(Br)Br | 63 to 64
COc1cc(N)c(Cl)cc1C(C)=O | 114 to 116
Cc1ccc(C(=O)Nc2cc(-n3ccnc3C)cc(C(F)(F)F)c2)cc1Nc1nccc(-c2cccnc2)n1 | 242 to 247
Cc1cc(N)c(NC(=O)OC(C)(C)C)cc1C(F)(F)F | 144
CCSc1cc(C)nc(SCC)c1NC(=O)CCCSc1nc2cccc(C(F)(F)F)c2o1 | 148 to 150
O=C=Nc1ccc(F)cc1 | 93 to 94
CSCC(C)(C)NC(=O)c1c(I)cccc1Oc1ncc(C(F)(F)F)cc1Cl | 83 to 85
O=C(O)c1cc(O)c(C(=O)c2ccccc2)c([N+](=O)[O-])c1 | 264 to 266
Oc1ccc(C(O)(c2ccccc2)C(CCCCl)c2ccccc2)cc1 (stereo unspecified) | 75 to 78
COC(=O)C(=O)CC(=O)c1cc(F)c(OC)c(F)c1 | 185 to 190

Next, values leading:

melting point [°C] | SMILES
195 to 196 | CC1=C(C(=O)OC(C)(C)C)C(c2cccc(Br)c2)C(C(=O)OC(C)(C)C)=C(C)N1
70 to 72 | CC1(C)Oc2ccc(OCc3ccccc3)cc2C2OC21 (stereo unspecified)
80 | CC(C)(C)c1ccc(C2=NC[C@@H](OC(=O)Nc3ccccc3)[C@H](c3ccccc3)O2)cc1 (racemic)
210 to 212 | CSc1ccc(C(=O)NCc2ccc3c(c2)C(=O)N(C2(C)CCC(=O)NC2=O)C3=O)nc1 (stereo unspecified)
210 to 212 | Cc1cc(C(N)=O)ccc1O[C@@H]1CCNC[C@H]1O (relative stereo)
182 to 186 | NNc1nc(C(F)(F)F)nc(-c2ccccc2)c1-c1ccccc1
85 to 87 | C=C[Si](C)(c1ccccc1)c1cccc(Cl)c1C(=O)NCC (stereo unspecified)
185 | COc1cccc2c1CCCC2=NNc1nc(-c2cccc([N+](=O)[O-])c2)cs1
87 to 88 | OC(c1ccc(Cl)cc1)(c1ccc(Cl)cc1)C1CO1 (stereo unspecified)
127 to 129 | CN(CCOc1ccc(CCOCCc2ncn[nH]2)cc1)c1nc2ccccc2o1
148 to 149 | Cc1oc(-c2ccc(C(F)(F)F)cc2)nc1-c1cccc(-c2ccc(OC(Cc3ccccc3)C(=O)O)cc2)c1 (stereo unspecified)
109 to 110 | CC(=O)Cc1ccc(-c2noc3cc(Cl)ccc23)cc1
159 to 160 | Nc1nccc(-c2ccccc2OCC(O)CN2CCN(c3ccc(Cl)cc3)CC2)n1 (stereo unspecified)
144 to 146 | CCOC(=O)NCC(=O)NNC1=NC(C)C(c2ccccc2)=NN1 (stereo unspecified)
75 to 77 | CCCN(Cc1ccccc1)c1cccc(-c2nc(NC)nc3cc(OC)c(OC)cc23)c1
216 | CC12CC(c3ccc(N)cc3)(C1)C(=O)NC2=O
197 | COC(=O)C1=C(C)NN=C(C(=O)N(C)Cc2ccccc2)C1c1ccccc1C(F)(F)F (stereo unspecified)
187 | COc1ccc(-c2ccnc(-c3cn(C)c(=O)n3-c3ccc(C(C)(C)C#N)cc3)c2)cn1
183 to 186 | Cc1nccn1-c1ccc(COc2cccc(C3(C(N)=O)CCOCC3)c2)cc1
136 to 137 | CCOC(=O)c1cc(=O)c2ccc(OCCCCCOc3ccc(C(C)=O)c(O)c3)cc2o1
188 to 191 | Oc1ccccc1-c1cc(Oc2ccc3cccnc3c2)ncn1
118 to 120 | Cn1c(C(=O)c2ccc(F)cc2)cc2cc(OCc3ccccc3)ccc21
110 | COc1ccc(CCC(=O)c2c(O)cc(OC)cc2OC)cc1
286 to 288 | O=c1[nH]c2ccccc2c2cc(CO)nn12

melting point [°C] | SMILES
116 to 117 | Clc1ccc(CO[C@H]2CO[C@@H](c3ccccc3)OC2)cc1
138 | CCN1CCNS(=O)(=O)c2cc(Oc3ccccc3)ccc21
120 to 121 | C=C(C(=O)OC)N(Cc1ccccc1NC(=O)C(F)(F)F)S(=O)(=O)c1ccc(OC)cc1
228 to 230 | O=C1OC(=Cc2ccccc2C(F)(F)F)C(O)=C1c1ccc(-c2ccccc2)cc1
200 | CC(=O)c1ccc(-c2cnc3c(c2)N(Cc2ccccc2)C(=O)CN3)cc1
146 to 147 | CCOC(=O)c1cc(OCc2ccccc2)c2c(Cl)cc(Cl)cc2n1
139 to 141 | COc1cc(=O)c(-c2ccnn2-c2ccccc2)nn1-c1cccc(C(F)(F)F)c1
197 | CCOC(=O)c1ccc(OCC2CN(c3ccc(S(C)(=O)=O)nn3)CCO2)cc1 (stereo unspecified)
340 to 343 | Cc1[nH]c(C)c(-c2ccc(Oc3ccc(Cl)cc3)cc2)c(=O)c1Cl
123 to 124 | CCOC(=O)C(Cc1ccccc1)NC(=O)N1CCc2cc(S(=O)(=O)N3CCN(c4cccc(Cl)c4)CC3)ccc21 (stereo unspecified)
197 to 198 | CNC(=S)Nc1cc(OC)c(-c2ccc(C[C@H](NC(=O)c3c(Cl)cccc3Cl)C(=O)O)cc2)c(OC)c1
201 | c1ccc(N=C2N=C(c3ccccc3)N=C2Nc2ccccc2)cc1
121 to 123 | CC(C#N)(COc1ccccc1C(F)(F)F)NC(=O)c1ccc(C(=O)c2ccccc2)cc1 (stereo unspecified)
132 to 133 | CC(C#Cc1cccc(C2=NOC(c3ccc(F)cc3)C2)c1)N(O)C(N)=O (stereo unspecified)
128 | Cc1cccc(-c2n[nH]cc2-c2ccnc(-c3ccc(-n4ccnc4C)cc3)c2)n1
78 to 81 | CC(O)=C1C(=O)CC(c2ccccc2C)CC1=O (stereo unspecified)
125 to 127 | COc1ccc(-n2nc(C(=O)CCCO)cc2-c2ccc(S(C)(=O)=O)cc2)cc1
227 to 229 | COc1cc2c(cc1Nc1ncc(Cl)c(Nc3cccc(OCC#N)c3)n1)CCOC(=O)N2C
170 to 173 | O=C(O)c1csc(-c2ccc(OCC(F)(F)C(F)F)cc2)n1
175 to 185 | CN1CCOc2cc(S(=O)(=O)n3c(CCC(=O)O)cc4nc(Cl)ccc43)ccc21
131 | Cn1cc(-c2cccc(Cl)c2)c(=O)o1
130 | CCC(C(N)=O)N(Cc1ccc2nc(NCCCN3CCOCC3)n(Cc3nc(C)ccc3OC)c2c1)c1cc(C)cc(C)c1 (stereo unspecified)
239 to 240 | O=C(c1cccs1)c1cnn2c(-c3cccc(NC(=O)C4CCCCC4)c3)ccnc12
